Measured values taken from patent publication US11578056B2, “Solid forms comprising (S)-2-(2,6-dioxopiperidin-3-yl)-4-((2-fluoro-4-((3-morpholinoazetidin-1-yl)methyl)benzyl)amino)isoindoline-1,3-dione and salts thereof, and compositions comprising and methods of using the same” (Celgene Corporation, priority 2019, dated 2023).

Experiments:
Assay in all cases: Hematological cell line viability/apoptosis flow cytometry assay
Type in all cases: cell-based
[1] = test system: L-428 cell line; conditions: L-428 (HL), 120 h
Procedure, shortened: (§1)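 IC50 and EC50 derive from dose–response curves for DMSO-normalized live-cell counts and Annexin V-positive fraction, respectively. Both were measured by flow cytometry after 120 h of treatment at 0.00015–10 μM compound, 0.1% DMSO.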

[2] = test system: DOHH2 cell line; conditions: DOHH2 (FL); 120 h
Procedure, shortened: as §1

[3] = test system: U-2973 cell line; conditions: 120 h
Procedure, shortened: as §1

[4] = test system: SU-DHL-6 cell line; conditions: SU-DHL-6 (DLBCL GCB); 120 h
Procedure, shortened: as §1

[5] = test system: Farage cell line; conditions: Farage (DLBCL PMBL); 120 h
Procedure, shortened: as §1

[6] = test system: WSU-DLCL cell line; conditions: WSU-DLCL (DLBCL GCB), 120 h
Procedure, shortened: as §1

[7] = test system: VAL cell line; conditions: VAL (DLBCL), 120 h
Procedure, shortened: as §1

[8] = test system: ULA cell line; conditions: ULA (DLBCL), 120 h
Procedure, shortened: as §1

[9] = test system: Toledo cell line; conditions: Toledo (DLBCL GCB); 120 h
Procedure, shortened: as §1

[10] = test system: EHEB cell line; conditions: EHEB (CLL), 120 h
Procedure, shortened: as §1

[11] = test system: OCI-LY7 cell line; conditions: OCI-LY7 (DLBCL GCB); 120 h
Procedure, shortened: as §1

[12] = test system: RIVA cell line; conditions: RIVA (DLBCL ABC), 120 h
Procedure, shortened: as §1

[13] = test system: WILL-2 cell line; conditions: WILL-2 (DLBCL), 120 h
Procedure, shortened: as §1

For `O=C1CC[C@H](N2C(=O)c3cccc(NCc4ccc(CN5CC(N6CCOCC6)C5)cc4F)c3C2=O)C(=O)N1` [Compound 1, (S)-2-(2,6-dioxopiperidin-3-yl)-4-((2-fluoro-4-((3-morpholinoazetidin-1-yl)methyl)benzyl)amino)isoindoline-1,3-dione], the EC50 ([1]; Homo sapiens) was 64500 nM, the IC50 ([1]; Homo sapiens, read-out: % Viable Cells IC50) was 252 nM and the “% Viable Cells AUC” value [1] was 450.4. For the same compound, the “% Viable Cells Emax” value [1] was 47.3%, the “Apoptosis AUC” value [1] was 63.35 and the “Apoptosis Ymax” value [1] was 27.50%. The “% Viable Cells AUC” value [2] was 6.902, the “% Viable Cells Emax” value [2] was 0.2066% and the “Apoptosis AUC” value [2] was 923.9. For the same compound, the “Apoptosis Ymax” value [2] was 95.1%, the “% Viable Cells AUC” value [3] was 853.4 and the “% Viable Cells Emax” value [3] was 19.45%. The “Apoptosis AUC” value [3] was 391.9, the “Apoptosis Ymax” value [3] was 60.8% and the “% Viable Cells AUC” value [4] was 19.94. For the same compound, the “% Viable Cells Emax” value [4] was 0.2469%, the “Apoptosis AUC” value [4] was 920.7 and the “Apoptosis Ymax” value [4] was 95.92%. For the same compound, the “% Viable Cells AUC” value [5] was 10.16, the “% Viable Cells Emax” value [5] was 0.7936% and the “Apoptosis AUC” value [5] was 728.7. The “Apoptosis Ymax” value [5] was 84.17%, the “% Viable Cells AUC” value [6] was 341.9 and the “% Viable Cells Emax” value [6] was 27.83%. The “Apoptosis AUC” value [6] was 565.1, the “Apoptosis Ymax” value [6] was 59.91% and the EC50 [6] was 18 nM. For the same compound, the IC50 ([6]; read-out: % Viable Cells IC50) was 142 nM, the “% Viable Cells AUC” value [7] was 14.62 and the “% Viable Cells Emax” value [7] was 0.9632%. The “Apoptosis AUC” value [7] was 936.7, the “Apoptosis Ymax” value [7] was 95.68% and the EC50 [7] was 0.605 nM. The IC50 ([7]; read-out: % Viable Cells IC50) was 0.57 nM, the “% Viable Cells AUC” value [8] was 0.5518 and the “% Viable Cells Emax” value [8] was 0.02523%. For the same compound, the “Apoptosis AUC” value [8] was 995.3, the “Apoptosis Ymax” value [8] was 99.76% and the EC50 [8] was 1.79 nM. The IC50 ([8]; read-out: % Viable Cells IC50) was 0.99 nM, the “% Viable Cells AUC” value [9] was 112.3 and the “% Viable Cells Emax” value [9] was 8.56%. For the same compound, the “Apoptosis AUC” value [9] was 231.4, the “Apoptosis Ymax” value [9] was 27.5% and the “% Viable Cells AUC” value [10] was 319.3. For the same compound, the “% Viable Cells Emax” value [10] was 28.68%, the “Apoptosis AUC” value [10] was 65.03 and the “Apoptosis Ymax” value [10] was 8.42%. The EC50 [10] was 506 nM, the IC50 ([10]; read-out: % Viable Cells IC50) was 30.3 nM and the “% Viable Cells AUC” value [11] was 48.18. For the same compound, the “% Viable Cells Emax” value [11] was 4.191%, the “Apoptosis AUC” value [11] was 682.7 and the “Apoptosis Ymax” value [11] was 71.18%. For the same compound, the “% Viable Cells AUC” value [12] was 452.6, the “% Viable Cells Emax” value [12] was 36.65% and the “Apoptosis AUC” value [12] was 242.8. For the same compound, the “Apoptosis Ymax” value [12] was 27.92%, the EC50 [12] was 17.7 nM and the IC50 ([12]; read-out: % Viable Cells IC50) was 114 nM. The “% Viable Cells AUC” value [13] was 17.1, the “% Viable Cells Emax” value [13] was 0.03115% and the “Apoptosis AUC” value [13] was 916.9. The “Apoptosis Ymax” value [13] was 99.43%, the EC50 [13] was 89.7 nM and the IC50 ([13]; read-out: % Viable Cells IC50) was 2.36 nM.
